According to publication PMC3270411 (Chemistry & biology, 2012):

Legend:
CDK9 = CDK9 (Homo sapiens, UniProt P50750); assay: KiNativ cellular kinase profiling; assay type: cell-based; settings: for Percent inhibition of kinase labeling by ATP-biotin: A375 cells, 1 μM, 3 hours, CDK9, labeling site Lys2; for inhibition at 1 µM: A-375, read-out: Percent inhibition of kinase labeling by ATP-biotin
ITPK1 = target: T1, ITPK1 (Homo sapiens, UniProt Q13572); assay: KiNativ cellular kinase profiling; assay type: cell-based; settings: for Percent inhibition of kinase labeling by ATP-biotin: A375 cells, 1 μM, 3 hours, ITPK1, labeling site ATP; for inhibition at 1 µM: A-375, read-out: Percent inhibition of kinase labeling by ATP-biotin
T1 sequence (Q13572 1-414): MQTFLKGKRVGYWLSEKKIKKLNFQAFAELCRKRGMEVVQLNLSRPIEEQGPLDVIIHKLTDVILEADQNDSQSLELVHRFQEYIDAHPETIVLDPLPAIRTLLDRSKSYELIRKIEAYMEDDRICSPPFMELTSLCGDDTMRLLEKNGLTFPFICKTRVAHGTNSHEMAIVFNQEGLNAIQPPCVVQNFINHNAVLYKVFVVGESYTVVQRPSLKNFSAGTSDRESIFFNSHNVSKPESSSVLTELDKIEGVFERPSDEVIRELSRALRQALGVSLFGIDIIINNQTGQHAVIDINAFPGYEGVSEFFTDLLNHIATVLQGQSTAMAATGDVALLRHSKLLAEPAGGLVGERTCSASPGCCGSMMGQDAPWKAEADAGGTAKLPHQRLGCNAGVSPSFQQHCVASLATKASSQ

PKD1,PKD2 = assay: KiNativ cellular kinase profiling; assay type: cell-based; settings: A375 cells, 1 μM, 3 hours; PKD1,PKD2, labeling site Lys2
MARK1 = MARK1 (Homo sapiens, UniProt Q9P0L2); assay: KiNativ cellular kinase profiling; assay type: cell-based; settings: for Percent inhibition of kinase labeling by ATP-biotin: A375 cells, 1 μM, 3 hours, MARK1, labeling site Lys2; for inhibition at 1 µM: A-375, read-out: Percent inhibition of kinase labeling by ATP-biotin
MARK1, sequence (Q9P0L2 whole entry): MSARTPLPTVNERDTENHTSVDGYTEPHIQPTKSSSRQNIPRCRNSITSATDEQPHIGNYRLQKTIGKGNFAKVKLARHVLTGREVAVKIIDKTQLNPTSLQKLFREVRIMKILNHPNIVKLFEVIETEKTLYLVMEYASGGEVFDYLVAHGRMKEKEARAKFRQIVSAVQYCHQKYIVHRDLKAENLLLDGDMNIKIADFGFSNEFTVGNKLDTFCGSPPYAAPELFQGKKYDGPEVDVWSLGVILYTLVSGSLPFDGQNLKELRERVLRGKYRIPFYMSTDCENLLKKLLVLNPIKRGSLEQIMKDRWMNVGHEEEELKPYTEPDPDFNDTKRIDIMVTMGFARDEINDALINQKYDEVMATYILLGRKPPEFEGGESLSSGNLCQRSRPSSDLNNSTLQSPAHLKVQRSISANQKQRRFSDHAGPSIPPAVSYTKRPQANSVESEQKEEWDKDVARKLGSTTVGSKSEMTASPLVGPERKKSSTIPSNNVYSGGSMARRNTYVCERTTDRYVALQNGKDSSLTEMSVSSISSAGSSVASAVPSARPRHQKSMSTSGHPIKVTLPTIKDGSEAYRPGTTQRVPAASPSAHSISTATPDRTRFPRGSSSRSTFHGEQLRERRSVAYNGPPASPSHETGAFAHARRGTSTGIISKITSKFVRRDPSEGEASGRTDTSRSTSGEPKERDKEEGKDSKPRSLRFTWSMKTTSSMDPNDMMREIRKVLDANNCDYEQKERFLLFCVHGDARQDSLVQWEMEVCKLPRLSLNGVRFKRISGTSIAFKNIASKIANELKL

MARK2,MARK3 = assay: KiNativ cellular kinase profiling; assay type: cell-based; settings: A375 cells, 1 μM, 3 hours; MARK2,MARK3, labeling site Lys2
MARK3 = MARK3 (Homo sapiens, UniProt P27448); assay: KiNativ cellular kinase profiling; assay type: cell-based; settings: for Percent inhibition of kinase labeling by ATP-biotin: A375 cells, 1 μM, 3 hours, MARK3, labeling site Lys1; for inhibition at 1 µM: A-375, read-out: Percent inhibition of kinase labeling by ATP-biotin
MARK3, sequence (P27448 whole entry): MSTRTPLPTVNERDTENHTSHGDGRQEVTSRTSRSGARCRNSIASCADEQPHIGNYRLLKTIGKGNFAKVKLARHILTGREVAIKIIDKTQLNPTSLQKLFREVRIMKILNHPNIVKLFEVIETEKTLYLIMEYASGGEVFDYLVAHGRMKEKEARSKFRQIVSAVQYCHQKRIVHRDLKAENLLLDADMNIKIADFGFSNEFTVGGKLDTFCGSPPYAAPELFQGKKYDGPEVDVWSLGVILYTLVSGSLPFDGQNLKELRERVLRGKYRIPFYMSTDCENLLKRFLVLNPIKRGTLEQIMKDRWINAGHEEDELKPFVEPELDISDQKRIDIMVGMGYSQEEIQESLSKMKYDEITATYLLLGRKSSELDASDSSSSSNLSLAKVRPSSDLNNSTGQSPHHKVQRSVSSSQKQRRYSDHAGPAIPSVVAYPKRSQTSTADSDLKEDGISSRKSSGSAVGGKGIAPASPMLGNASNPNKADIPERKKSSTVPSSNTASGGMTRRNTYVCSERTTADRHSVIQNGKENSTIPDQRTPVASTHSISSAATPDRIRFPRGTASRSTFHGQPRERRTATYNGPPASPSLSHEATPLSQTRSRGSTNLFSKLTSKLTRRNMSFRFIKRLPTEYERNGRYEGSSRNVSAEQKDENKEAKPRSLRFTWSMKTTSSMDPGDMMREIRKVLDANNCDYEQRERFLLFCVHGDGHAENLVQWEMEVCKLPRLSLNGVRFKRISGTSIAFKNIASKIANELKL

ZC2/TNIK,ZC3/MINK = assay: KiNativ cellular kinase profiling; assay type: cell-based; settings: A375 cells, 1 μM, 3 hours, labeling site Lys2
ZC2/TNIK = ZC2/TNIK (Homo sapiens, UniProt Q9UKE5); assay: KiNativ cellular kinase profiling; assay type: cell-based; settings: for Percent inhibition of kinase labeling by ATP-biotin: A375 cells, 1 μM, 3 hours, ZC2/TNIK, labeling site Lys1; for inhibition at 1 µM: A-375, read-out: Percent inhibition of kinase labeling by ATP-biotin
ZC2/TNIK, sequence (Q9UKE5 whole entry): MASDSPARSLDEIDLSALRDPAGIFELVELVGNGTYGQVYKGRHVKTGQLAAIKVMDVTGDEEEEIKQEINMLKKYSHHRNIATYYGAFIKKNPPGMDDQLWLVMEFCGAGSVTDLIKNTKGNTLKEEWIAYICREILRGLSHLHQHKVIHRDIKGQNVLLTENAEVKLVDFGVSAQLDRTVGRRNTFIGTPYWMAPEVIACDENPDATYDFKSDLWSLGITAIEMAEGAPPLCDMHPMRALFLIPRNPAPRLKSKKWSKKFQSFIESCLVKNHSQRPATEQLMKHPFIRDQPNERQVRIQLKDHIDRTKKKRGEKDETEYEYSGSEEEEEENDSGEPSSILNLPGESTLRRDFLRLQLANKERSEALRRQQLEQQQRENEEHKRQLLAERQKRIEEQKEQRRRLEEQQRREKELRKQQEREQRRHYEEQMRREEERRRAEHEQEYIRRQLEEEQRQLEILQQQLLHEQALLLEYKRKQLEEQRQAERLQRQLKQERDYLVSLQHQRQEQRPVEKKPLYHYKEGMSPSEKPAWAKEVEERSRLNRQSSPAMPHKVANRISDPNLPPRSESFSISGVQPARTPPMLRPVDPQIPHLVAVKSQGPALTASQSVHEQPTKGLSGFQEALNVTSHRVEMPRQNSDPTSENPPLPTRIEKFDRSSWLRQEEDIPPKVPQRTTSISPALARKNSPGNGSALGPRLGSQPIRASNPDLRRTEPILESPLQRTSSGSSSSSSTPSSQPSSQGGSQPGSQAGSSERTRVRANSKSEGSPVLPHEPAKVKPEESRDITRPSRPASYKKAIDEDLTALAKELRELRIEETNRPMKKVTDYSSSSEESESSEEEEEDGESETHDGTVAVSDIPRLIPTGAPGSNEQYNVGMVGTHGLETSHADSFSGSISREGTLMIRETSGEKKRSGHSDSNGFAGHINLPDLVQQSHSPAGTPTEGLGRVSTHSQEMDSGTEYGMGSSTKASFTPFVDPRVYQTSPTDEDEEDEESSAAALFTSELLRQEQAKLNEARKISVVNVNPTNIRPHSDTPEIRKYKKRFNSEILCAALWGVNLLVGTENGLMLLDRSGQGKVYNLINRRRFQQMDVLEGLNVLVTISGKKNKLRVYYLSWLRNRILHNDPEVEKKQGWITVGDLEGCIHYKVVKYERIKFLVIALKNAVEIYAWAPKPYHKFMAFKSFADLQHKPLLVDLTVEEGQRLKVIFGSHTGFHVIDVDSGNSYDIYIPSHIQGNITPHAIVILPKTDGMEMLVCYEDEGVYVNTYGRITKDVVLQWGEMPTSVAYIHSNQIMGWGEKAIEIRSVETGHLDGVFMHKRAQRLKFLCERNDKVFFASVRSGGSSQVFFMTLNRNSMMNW

TAO2 = target: T2, TAO2 (Homo sapiens, UniProt Q9UL54); assay: KiNativ cellular kinase profiling; assay type: cell-based; settings: for Percent inhibition of kinase labeling by ATP-biotin: A375 cells, 1 μM, 3 hours, TAO2, labeling site Lys2; for inhibition at 1 µM: A-375, read-out: Percent inhibition of kinase labeling by ATP-biotin
T2 sequence (Q9UL54 1-1235): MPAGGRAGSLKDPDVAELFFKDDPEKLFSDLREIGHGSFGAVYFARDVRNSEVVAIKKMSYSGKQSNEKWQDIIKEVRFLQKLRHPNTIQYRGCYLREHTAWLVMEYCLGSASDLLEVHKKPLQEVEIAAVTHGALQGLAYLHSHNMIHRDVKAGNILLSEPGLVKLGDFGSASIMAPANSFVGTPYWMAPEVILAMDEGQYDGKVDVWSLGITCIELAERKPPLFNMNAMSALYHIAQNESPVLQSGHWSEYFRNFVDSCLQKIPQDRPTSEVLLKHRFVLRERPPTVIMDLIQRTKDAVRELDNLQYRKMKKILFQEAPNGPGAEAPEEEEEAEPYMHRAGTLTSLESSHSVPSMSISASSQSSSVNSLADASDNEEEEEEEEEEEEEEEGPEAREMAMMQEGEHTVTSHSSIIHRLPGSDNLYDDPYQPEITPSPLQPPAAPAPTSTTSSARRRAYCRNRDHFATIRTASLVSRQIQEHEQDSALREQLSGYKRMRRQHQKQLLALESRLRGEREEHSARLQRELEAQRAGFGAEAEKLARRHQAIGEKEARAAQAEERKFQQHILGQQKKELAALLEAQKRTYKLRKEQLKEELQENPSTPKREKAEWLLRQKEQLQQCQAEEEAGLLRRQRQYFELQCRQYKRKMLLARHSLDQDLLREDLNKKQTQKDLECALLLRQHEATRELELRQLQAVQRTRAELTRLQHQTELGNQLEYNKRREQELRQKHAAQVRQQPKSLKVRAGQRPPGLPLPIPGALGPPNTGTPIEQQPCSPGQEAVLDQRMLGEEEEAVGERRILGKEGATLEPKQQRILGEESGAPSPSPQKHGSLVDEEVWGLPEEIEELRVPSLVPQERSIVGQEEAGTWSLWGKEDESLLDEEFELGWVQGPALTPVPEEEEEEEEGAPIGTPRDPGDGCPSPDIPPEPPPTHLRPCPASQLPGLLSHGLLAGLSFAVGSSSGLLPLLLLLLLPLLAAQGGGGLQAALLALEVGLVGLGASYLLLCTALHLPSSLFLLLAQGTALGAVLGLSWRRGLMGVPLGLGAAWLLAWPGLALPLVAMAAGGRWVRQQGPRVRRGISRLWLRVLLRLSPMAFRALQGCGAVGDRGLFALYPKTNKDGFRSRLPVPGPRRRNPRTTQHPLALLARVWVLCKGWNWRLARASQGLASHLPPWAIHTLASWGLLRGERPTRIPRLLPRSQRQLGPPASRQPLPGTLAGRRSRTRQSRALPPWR

ABL,ARG = assay: KiNativ cellular kinase profiling; assay type: cell-based; settings: A375 cells, 1 μM, 3 hours, labeling site Lys1
IRAK1 = IRAK1 (Homo sapiens, UniProt P51617); assay: KiNativ cellular kinase profiling; assay type: cell-based; settings: for Percent inhibition of kinase labeling by ATP-biotin: A375 cells, 1 μM, 3 hours, IRAK1, labeling site Lys2; for inhibition at 1 µM: A-375, read-out: Percent inhibition of kinase labeling by ATP-biotin
IRAK1, sequence (P51617 whole entry, species assumed): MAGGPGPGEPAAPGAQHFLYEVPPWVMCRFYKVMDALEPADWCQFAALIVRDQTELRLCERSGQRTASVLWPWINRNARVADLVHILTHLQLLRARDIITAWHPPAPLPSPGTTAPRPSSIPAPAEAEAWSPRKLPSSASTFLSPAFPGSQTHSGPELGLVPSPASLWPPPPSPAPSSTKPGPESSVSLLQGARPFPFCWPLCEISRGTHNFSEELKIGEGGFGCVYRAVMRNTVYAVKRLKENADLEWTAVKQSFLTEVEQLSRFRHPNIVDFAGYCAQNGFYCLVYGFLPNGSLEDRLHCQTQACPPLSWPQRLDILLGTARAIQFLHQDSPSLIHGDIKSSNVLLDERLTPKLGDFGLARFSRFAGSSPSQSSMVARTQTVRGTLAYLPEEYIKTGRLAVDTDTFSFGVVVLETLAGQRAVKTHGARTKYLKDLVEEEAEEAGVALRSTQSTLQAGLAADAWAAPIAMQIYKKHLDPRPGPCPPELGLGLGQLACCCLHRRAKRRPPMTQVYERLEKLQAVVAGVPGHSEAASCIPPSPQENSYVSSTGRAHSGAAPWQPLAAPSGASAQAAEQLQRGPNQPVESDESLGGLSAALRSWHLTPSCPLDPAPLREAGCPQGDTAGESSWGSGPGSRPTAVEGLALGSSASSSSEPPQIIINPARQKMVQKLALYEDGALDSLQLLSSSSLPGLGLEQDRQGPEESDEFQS

RAF1 = RAF1 (Homo sapiens, UniProt P04049); assay: KiNativ cellular kinase profiling; assay type: cell-based; settings: for Percent inhibition of kinase labeling by ATP-biotin: A375 cells, 1 μM, 3 hours, RAF1, labeling site Lys2; for inhibition at 1 µM: A-375, read-out: Percent inhibition of kinase labeling by ATP-biotin
KIT(V559D) = KIT(V559D) (Homo sapiens, UniProt P10721, V559D); assay: KinomeScan dissociation constant; assay type: binding
KIT(V559D), sequence (P10721 26-976 V559D): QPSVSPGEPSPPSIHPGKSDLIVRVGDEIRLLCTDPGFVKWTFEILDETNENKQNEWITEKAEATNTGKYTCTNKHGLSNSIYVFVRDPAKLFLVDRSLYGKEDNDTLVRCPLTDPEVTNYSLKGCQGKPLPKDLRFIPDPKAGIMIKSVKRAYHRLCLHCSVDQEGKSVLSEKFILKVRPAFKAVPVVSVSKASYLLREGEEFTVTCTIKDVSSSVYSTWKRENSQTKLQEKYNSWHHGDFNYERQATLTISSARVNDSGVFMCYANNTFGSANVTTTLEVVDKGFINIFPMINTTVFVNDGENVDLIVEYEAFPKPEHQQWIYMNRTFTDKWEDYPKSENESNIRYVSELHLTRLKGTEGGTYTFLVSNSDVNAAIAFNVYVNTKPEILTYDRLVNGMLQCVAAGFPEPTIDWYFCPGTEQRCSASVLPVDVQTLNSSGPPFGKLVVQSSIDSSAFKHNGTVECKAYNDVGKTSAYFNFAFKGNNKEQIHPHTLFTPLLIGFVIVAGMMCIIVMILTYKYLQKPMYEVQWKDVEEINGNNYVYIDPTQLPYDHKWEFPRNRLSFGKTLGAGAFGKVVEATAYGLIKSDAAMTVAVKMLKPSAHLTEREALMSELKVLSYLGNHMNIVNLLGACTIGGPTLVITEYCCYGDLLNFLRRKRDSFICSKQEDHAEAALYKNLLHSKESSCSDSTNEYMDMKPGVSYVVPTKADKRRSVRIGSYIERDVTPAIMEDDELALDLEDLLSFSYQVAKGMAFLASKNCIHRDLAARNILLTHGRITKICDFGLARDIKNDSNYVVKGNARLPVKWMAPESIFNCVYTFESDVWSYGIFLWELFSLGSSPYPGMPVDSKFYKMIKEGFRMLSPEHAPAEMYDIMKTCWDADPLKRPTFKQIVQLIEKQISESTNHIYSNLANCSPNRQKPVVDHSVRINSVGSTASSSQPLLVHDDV

Row | inhibition at 1 µM (CDK9) [%] | inhibition at 1 µM (ITPK1) [%] | inhibition at 1 µM (MARK1) [%] | inhibition at 1 µM (MARK3) [%] | inhibition at 1 µM (ZC2/TNIK) [%] | inhibition at 1 µM (TAO2) [%] | inhibition at 1 µM (IRAK1) [%] | inhibition at 1 µM (RAF1) [%] | Kd (KIT(V559D)) [nM] | SMILES | Percent inhibition of kinase labeling by ATP-biotin (CDK9) [%] | Percent inhibition of kinase labeling by ATP-biotin (ITPK1) [%] | Percent inhibition of kinase labeling by ATP-biotin (PKD1,PKD2) [%] | Percent inhibition of kinase labeling by ATP-biotin (MARK1) [%] | Percent inhibition of kinase labeling by ATP-biotin (MARK2,MARK3) [%] | Percent inhibition of kinase labeling by ATP-biotin (MARK3) [%] | Percent inhibition of kinase labeling by ATP-biotin (ZC2/TNIK,ZC3/MINK) [%] | Percent inhibition of kinase labeling by ATP-biotin (ZC2/TNIK) [%] | Percent inhibition of kinase labeling by ATP-biotin (TAO2) [%] | Percent inhibition of kinase labeling by ATP-biotin (ABL,ARG) [%] | Percent inhibition of kinase labeling by ATP-biotin (IRAK1) [%] | further results
1 | – | – | – | – | – | – | – | – | – | CCC(=O)Nc1cccc(C(=O)Nc2ccc(Nc3nccc(-c4cccnc4)n3)cc2)c1 [JNK-IN-6] | 7.6 | 27 | 15.9 | 23.9 | 22.9 | −7.3 | 52.8 | −15.9 | 22.5 | −1.4 | −4.6 | Percent inhibition of kinase labeling by ATP-biotin (RAF1): −20.2%
2 | -23.4 | -0.7 | 18.6 | -27.8 | > 80 | 42.6 | 5.4 | 25.5 | 8.2 | CN(C)C/C=C/C(=O)Nc1cccc(C(=O)Nc2ccc(Nc3nccc(-c4c(-c5ccccc5)nn5ccccc45)n3)cc2)c1 [JNK-IN-11] | – | – | 10.4 | – | 0.4 | – | 75.9 | – | – | 56.1 | – | –
3 | -34.1 | 24.6 | 8.9 | -12 | 9.9 | -21.6 | 0.8 | -41.4 | 92 | Cc1cc(NC(=O)c2cccc(NC(=O)/C=C/CN(C)C)c2)ccc1Nc1nccc(-c2cccnc2)n1 [JNK-IN-8] | – | – | −3 | – | 13.9 | – | 45.1 | – | – | −2.7 | – | –
4 | – | – | – | – | – | – | – | – | – | CN(C)C/C=C/C(=O)Nc1cccc(C(=O)Nc2ccc(Nc3nccc(/C(C#N)=C4\Nc5ccccc5S4)n3)cc2)c1 [JNK-IN-12] | −35.3 | 8.6 | −39.3 | −43.5 | −38.7 | −67.9 | −36.2 | −8.9 | −13 | 7.9 | −14.9 | Percent inhibition of kinase labeling by ATP-biotin (RAF1): 8.6%

Row | SMILES | inhibition at 1 µM (CDK9) [%] | inhibition at 1 µM (ITPK1) [%] | inhibition at 1 µM (MARK1) [%] | inhibition at 1 µM (MARK3) [%] | inhibition at 1 µM (ZC2/TNIK) [%] | inhibition at 1 µM (TAO2) [%] | inhibition at 1 µM (IRAK1) [%] | inhibition at 1 µM (RAF1) [%] | Kd (KIT(V559D)) [nM] | Percent inhibition of kinase labeling by ATP-biotin (CDK9) [%] | Percent inhibition of kinase labeling by ATP-biotin (ITPK1) [%] | Percent inhibition of kinase labeling by ATP-biotin (PKD1,PKD2) [%] | Percent inhibition of kinase labeling by ATP-biotin (MARK1) [%] | Percent inhibition of kinase labeling by ATP-biotin (MARK2,MARK3) [%] | Percent inhibition of kinase labeling by ATP-biotin (MARK3) [%] | Percent inhibition of kinase labeling by ATP-biotin (ZC2/TNIK,ZC3/MINK) [%] | Percent inhibition of kinase labeling by ATP-biotin (ZC2/TNIK) [%] | Percent inhibition of kinase labeling by ATP-biotin (TAO2) [%] | Percent inhibition of kinase labeling by ATP-biotin (ABL,ARG) [%] | Percent inhibition of kinase labeling by ATP-biotin (IRAK1) [%] | further results
5 | CN(C)C/C=C/C(=O)Nc1cccc(C(=O)Nc2ccc(Nc3nccc(-c4cccnc4)n3)cc2)c1 [JNK-IN-7] | 16.6 | -0.2 | 7.9 | -13.5 | 20.9 | -3.7 | 81 | -7.3 | 48 | – | – | 18.2 | – | 26.5 | – | 31 | – | – | 1.9 | – | –
